In PMC4764201, “High Throughput Screen for Escherichia coli Twin Arginine Translocation (Tat) Inhibitors” (PLoS ONE, 2016):
Where two headings read alike, the source gives them in different places.

Test system: Escherichia coli Tat pathway
Experiment: Live cell assay: total mCherry fluorescence of cells producing spTorA-mCherry-SsrA (primary HTS assay)
Assay type: cell-based
Conditions: for IC50: read-out: IC50 (Live Cell Assay); for effect on synthesis of spTorA-mCherry-SsrA: appears to be a consequence of growth inhibition
Description: Having obtained the calibration and validation data described in the previous sections, we next established the protocol for the HTS. Details are provided in the Materials and Methods section. Here, we briefly summarize the assay. A single colony of E. coli strain MC4100(DE3) containing plasmids encoding TatABC and spTorA-mCherry-SsrA was inoculated into LB and grown overnight. The next morning, cells were transferred to fresh media, the production of TatABC and spTorA-mCherry-SsrA was induced, and cultures were aliquoted onto plates with test compounds. NaSCN was included in control wells to simulate a hit. Cells were grown for 8 h, followed by incubation at 4°C overnight, and then read the next day. Setting the total cellular fluorescence obtained with spTorA-mCherry-H6 under Tat^++ conditions to 100%, spTorA-mCherry-SsrA yielded a total cellular fluorescence signal of 63±14%, consistent with SsrA-induced degradation of the mCherry protein. The total cellular fluorescence was further reduced to 36±14% in the presence of 30 mM NaSCN (simulated hit), and to 41±6% in the absence of TatABC, verifying the Δψ- and Tat-dependence of the fluorescence signal (Fig 4D).
A single colony of E. coli strain MC4100(DE3) (pTatABC-DUET1, pTorA-mCherry-SsrA) was inoculated into a 100 mL LB culture supplemented with Ap and Cm and grown at 37°C with shaking (250 rpm) overnight. Cells were harvested by centrifugation at 4,000g for 10 min at room temperature (RT), suspended in 10 mL fresh LB broth supplemented with Ap and Cm, and the optical density (A500) was determined. Simultaneously, 700 mL LB supplemented with 100 mM arabinose, 2 mM IPTG, 100 μg/mL Ap and 68 μg/mL Cm was filter-sterilized (0.22 μm), and then divided into 200 mL (A) and 500 mL (B) portions. Sterile NaSCN (30 mM final; 1.5 mL of 4 M NaSCN) was added to portion A, and an equal ratio of sterile water was added to portion B (3.75 mL). Media and cells were transferred to the HTS facility on ice.
A CyBi-Well vario pipetting workstation (CyBio, Jena, Germany) was used to dispense library compounds and cultures. Library compounds (1 μL) solubilized in DMSO were added to 384-well black, clear-bottomed plates (Greiner Bio-one, Germany) in columns 3 to 22 (320 wells/plate). For controls, DMSO (1 μL) was added to each well in columns 1, 2, […], to achieve DMSO uniformity across the plate. Both portions of LB media were inoculated with E. coli MC4100(DE3) (pTatABC-DUET1, pTorA-mCherry-SsrA) from the concentrated stock to a final A500 = 0.15. The media with 30 mM NaSCN (positive control, or simulated hit) was dispensed into each well of columns 1 and 24 (49 μL each). An equivalent volume of media without NaSCN was dispensed into each well of columns 2 to 23. Columns 2 and 23 lacked NaSCN and test compounds and served as negative controls. The first 12,800 compounds were screened at 5 μM (plates 1–40), and the remaining 38,800 compounds were screened at 20 μM (plates 41–162).
The plates containing cells and dispersed test compounds were grown with shaking (200 rpm) at 25°C for 8 h. Plates were individually mounted, not stacked, on a hollow plastic platform, allowing adequate air circulation. Following the 8 h incubation, plates were transferred to 4°C for 16 h. Each plate was covered with an empty plate to prevent condensation on the lid. […] Following the incubation, plates were read using a BMG Polarstar Omega plate reader (BMG Labtech, Ortenberg, Germany) to determine optical densities (A500) and mCherry fluorescence intensities (EX = 584 nm, EM = 620 nm).
Supplementary file pone.0149659.s003.tiff: S3 Fig IC50's for Hit Compound 181^JS. (A) The total cellular mCherry fluorescence (live cell assay; n = 1), (B) the in vitro NADH-dependent Tat transport efficiency of pre-SufI (n = 1), and (C) the maximum transmembrane electrical potential gradient (n = 1) were measured for a range of concentrations of compound 181^JS (S2E Fig). (D) SDS-PAGE gel showing in-gel fluorescence data used in (B). […]

[1] = mCherry fluorescence intensity during in vivo cell growth, Tat++ conditions, 384-well plate

`N#CC1c2ccccc2-n2nncc2CN1Cc1cc(Cl)cc(Cl)c1` (stereo not shown) [21^NIH, 5-[(3,5-dichlorophenyl)methyl]-4,6-dihydrotriazolo[1,5-a][1, 4]benzodiazepine-6-carbonitrile] was tested, and the IC50 [1] was 13 µM.
In the case of `Cc1ccc(S(=O)(=O)/C=C/C#N)cc1` [Bay 11–7082], the “effect on synthesis of spTorA-mCherry-SsrA” value (Tat++ conditions) is reported as “inhibited synthesis”.
Work on `N#CC(C#N)=NNc1ccccc1Br` [Compound 1, [(2-bromophenyl)hydrazono]malononitrile] yielded an IC50 (Escherichia coli) of 6 µM.
`Oc1cc(Cl)ccc1Oc1ccc(Cl)cc1Cl` [Compound 18^NIH, 5-Chloro-2-(2,4-dichlorophenoxy)phenol] gave an IC50 (Escherichia coli) of 2 µM.
`O=[N+]([O-])c1cc([N+](=O)[O-])c2ccccc2c1Cl` [Compound 51, 1-chloro-2,4-dinitronaphthalene] was tested, and the IC50 (Escherichia coli) was 20 µM.
For `Fc1nc(F)c(F)c(NNC(=S)Nc2cccc(C(F)(F)F)c2)c1F` [Compound 111, 1-[(2,3,5,6-tetrafluoropyridin-4-yl)amino]-3-[(3-trifluoromethyl)phenyl]thiourea], the IC50 [1] was 31 µM.
For `FC(F)(F)c1cccc(-c2cccc3cnccc23)c1` [Compound 140, 5-[3-(trifluoromethyl)phenyl]isoquinoline], the IC50 (Escherichia coli) was 14 µM.
`O=C(Nc1cccc(C(F)(F)F)c1)Nc1ncc([N+](=O)[O-])s1` [Compound 181^JS, 1-(5-nitro-1,3-thiazol-2-yl)-3-[3-(trifluoromethyl)phenyl]urea] gave an IC50 (Escherichia coli) of 20 µM.
With `O=[N+]([O-])c1ccc(O)c(-c2cccs2)c1` [Compound 202, 4-nitro-2-thiophen-2-ylphenol] the IC50 (Escherichia coli) was 5 µM.
For `O=C1C=CC(=O)N1c1ccccc1` [N-phenylmaleimide], the “effect on synthesis of spTorA-mCherry-SsrA” value (Tat++ conditions) was “inhibited synthesis”.
